Data: patent publication US10316049B2, “Tank-binding kinase inhibitor compounds” (Gilead Sciences, Inc., priority 2015, dated 2019)

Columns and labels:
TBK1 = target: T1, TBK1 (Homo sapiens, UniProt Q9UHD2); experiment: TR-FRET enzymatic activity assay, TBK1; assay type: biochemical; further: full length recombinant TBK1 at 2.5 nM
T1 construct: TBK1 and IKKε were expressed and purified as full length recombinant proteins; made in house
T1 sequence (Q9UHD2 1-729): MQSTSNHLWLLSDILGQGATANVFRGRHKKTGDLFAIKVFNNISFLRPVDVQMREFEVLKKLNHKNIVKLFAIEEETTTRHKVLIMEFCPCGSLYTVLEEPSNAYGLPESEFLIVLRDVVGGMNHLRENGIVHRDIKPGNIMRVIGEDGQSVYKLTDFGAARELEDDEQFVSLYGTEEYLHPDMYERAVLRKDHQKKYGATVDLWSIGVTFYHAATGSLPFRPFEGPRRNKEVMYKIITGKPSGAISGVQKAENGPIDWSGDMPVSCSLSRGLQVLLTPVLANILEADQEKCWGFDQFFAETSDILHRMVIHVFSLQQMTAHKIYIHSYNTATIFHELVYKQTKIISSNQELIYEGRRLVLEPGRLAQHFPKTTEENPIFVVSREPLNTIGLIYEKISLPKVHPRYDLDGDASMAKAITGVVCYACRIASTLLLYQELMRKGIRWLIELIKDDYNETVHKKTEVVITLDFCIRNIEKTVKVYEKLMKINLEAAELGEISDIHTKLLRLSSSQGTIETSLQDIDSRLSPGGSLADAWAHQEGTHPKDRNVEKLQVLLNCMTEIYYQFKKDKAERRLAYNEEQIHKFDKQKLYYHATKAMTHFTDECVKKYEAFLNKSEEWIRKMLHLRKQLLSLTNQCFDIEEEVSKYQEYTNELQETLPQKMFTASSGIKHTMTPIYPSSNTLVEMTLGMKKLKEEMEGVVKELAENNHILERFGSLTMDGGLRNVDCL
Experimental: (§1) Biological Assay for TBK1 and IKKε:
(§2) Enzymatic activity of IKKε and TBK1 was measured using a homogeneous time resolved fluorescence resonance energy transfer (TR-FRET) assay that monitors enzyme dependent phosphorylation of a biotinylated serine/threonine peptide substrate. An increase in the amount of phosphorylated peptide results in an increase in TR-FRET signal. TBK1 and IKKε were expressed and purified as full length recombinant proteins. Detection reagents for the assay were purchased from Cisbio. […] After an assay reaction time of 240 minutes at 25° C., reactions were terminated with EDTA.
(§3) Amount of phosphorylated peptide was determined by the addition of 125 nM streptavidin XL665 and europium cryptate labeled anti-phospho monoclonal antibody and the resulting TR-FRET signal was recorded on an Envision plate reader (Ex: 340 nm; Em: 615/665 nm; 100 μs delay and 200 μs read window). Data was normalized based on a positive (1 μM Staurosporine) and negative (DMSO) controls and IC50 values calculated from the fit of the dose-response curves to a four-parameter equation. All IC50 values represent geometric mean values of a minimum of four determinations. These assays generally produced results within 3-fold of the reported mean.

IKKε = target: T2, IKKε (Homo sapiens, UniProt Q14164); experiment: TR-FRET enzymatic activity assay, IKKε; assay type: biochemical; conditions: read-out: IKKϵ IC50; further: full length recombinant IKKε at 0.3 nM
T2 construct: TBK1 and IKKε were expressed and purified as full length recombinant proteins; made in house
T2 sequence (Q14164 1-716): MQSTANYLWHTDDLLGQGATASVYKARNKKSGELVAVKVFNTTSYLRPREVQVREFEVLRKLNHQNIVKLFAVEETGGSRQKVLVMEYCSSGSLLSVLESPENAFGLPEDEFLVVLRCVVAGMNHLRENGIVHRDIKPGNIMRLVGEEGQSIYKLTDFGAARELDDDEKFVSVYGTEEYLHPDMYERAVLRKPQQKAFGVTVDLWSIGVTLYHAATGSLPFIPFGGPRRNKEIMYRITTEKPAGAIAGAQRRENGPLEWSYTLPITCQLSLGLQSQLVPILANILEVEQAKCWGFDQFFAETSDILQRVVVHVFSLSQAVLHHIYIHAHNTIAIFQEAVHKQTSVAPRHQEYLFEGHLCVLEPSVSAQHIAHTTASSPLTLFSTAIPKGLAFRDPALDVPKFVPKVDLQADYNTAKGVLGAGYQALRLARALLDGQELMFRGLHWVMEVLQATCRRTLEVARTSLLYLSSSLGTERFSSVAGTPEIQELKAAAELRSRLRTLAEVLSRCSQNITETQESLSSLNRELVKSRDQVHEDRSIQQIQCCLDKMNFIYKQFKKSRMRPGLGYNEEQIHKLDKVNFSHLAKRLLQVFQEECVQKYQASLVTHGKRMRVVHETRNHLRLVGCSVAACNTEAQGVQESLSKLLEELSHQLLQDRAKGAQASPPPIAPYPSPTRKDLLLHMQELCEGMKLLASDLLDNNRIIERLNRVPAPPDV
Experimental: as §1
as §2, with “An increase in the amount of phosphorylated peptide results in an increase in TR-FRET signal.” left out
as §3, with “determinations.” for “determinations. These assays generally produced results within 3-fold of the reported mean.”

| SMILES | IC50 (TBK1) [µM] | IC50 (IKKε) [µM] |
| --- | --- | --- |
| N#Cc1cc(-c2ccnc(NC(=O)[C@@H]3C[C@@H]3C(=O)O)c2)ccc1O[C@H]1CCN(C(=O)CO)C[C@H]1F [Example 73, (1,2-cis)-2-((4-(3-cyano-4-(((3R,4S)-3-fluoro-1-(2-hydroxyacetyl)piperidin-4-yl)oxy)phenyl)pyridin-2-yl)carbamoyl)cyclopropane-1-carboxylic acid] | 0.74 | > 1 |
| Cn1cc([C@@H]2C[C@H]2C(=O)Nc2cc(-c3ccc(O[C@H]4CCN(C(=O)CO)CC4(F)F)c(C#N)c3)ccn2)cn1 [Example 121, (1R,2R)—N-(4-(3-cyano-4-(((S)-3,3-difluoro-1-(2-hydroxyacetyl)piperidin-4-yl)oxy)phenyl)pyridin-2-yl)-2-(1-methyl-1H-pyrazol-4-yl)cyclopropane-1-carboxamide] | 0.0072 | 0.0062 |
| N#Cc1cc(-c2cc(NC(=O)C3CC3)ncn2)ccc1O[C@H]1CCN(C(=O)CO)C[C@H]1F [Example 19, N-(6-(3-cyano-4-(((3R,4S)-3-fluoro-1-(2-hydroxyacetyl)piperidin-4-yl)oxy)phenyl)pyrimidin-4-yl)cyclopropanecarboxamide] | 0.0156 | 0.0531 |
| N#Cc1cc(-c2ccnc(NC(=O)[C@H]3C[C@H]3F)c2)ccc1N1CCC(O)CC1 [Example 65, (1R,2R)—N-(4-(3-cyano-4-(4-hydroxypiperidin-1-yl)phenyl)pyridin-2-yl)-2-fluorocyclopropane-1-carboxamide] | 0.47 | > 1 |
| Cn1cc(C2C[C@H]2C(=O)Nc2cc(-c3ccc(O[C@H]4CCN(C(=O)CO)CC4(F)F)c(C#N)c3)ccn2)cn1 (stereo in doubt) [Example 89, (1,2-trans)-N-(4-(3-cyano-4-(((S)-3,3-difluoro-1-(2-hydroxyacetyl)piperidin-4-yl)oxy)phenyl)pyridin-2-yl)-2-(1-methyl-1H-pyrazol-4-yl)cyclopropane-1-carboxamide] | 0.0045 | 0.0024 |
| N#Cc1cc(-c2ccnc(NC(=O)[C@H]3C[C@@H]3c3cscn3)c2)ccc1OC1CCOCC1 (relative stereo) [Example 123, (1,2-Trans)-N-(4-(3-cyano-4-((tetrahydro-2H-pyran-4-yl)oxy)phenyl)pyridin-2-yl)-2-(thiazol-4-yl)cyclopropane-1-carboxamide] | 0.938 | > 1 |
| N#Cc1cc(-c2ccnc(NC(=O)[C@@H]3C[C@H]3c3cccnc3)c2)ccc1O[C@H]1CCN(C(=O)[C@@H](O)CO)CC1(F)F [Example 139, (1R,2R)—N-(4-(3-cyano-4-(((S)-1-((S)-2,3-dihydroxypropanoyl)-3,3-difluoropiperidin-4-yl)oxy)phenyl)pyridin-2-yl)-2-(pyridin-3-yl)cyclopropane-1-carboxamide] | 0.0158 | 0.0161 |
| N#Cc1cc(-c2ccnc(NC(=O)C3CC3)c2)ccc1N1CC[C@H](O)C1 [Example 16, (S)—N-(4-(3-cyano-4-(3-hydroxypyrrolidin-1-yl)phenyl)pyridin-2-yl)cyclopropanecarboxamide] | 0.0523 | 0.353 |
| Cn1cc([C@@H]2C[C@H]2C(=O)Nc2cc(-c3ccc(O[C@H]4CCN(C(=O)CO)C[C@H]4F)c(C#N)c3)ccn2)cn1 [Example 90, (1,2-trans)-N-(4-(3-cyano-4-(((3R,4S)-3-fluoro-1-(2-hydroxyacetyl)piperidin-4-yl)oxy)phenyl)pyridin-2-yl)-2-(1-methyl-1H-pyrazol-4-yl)cyclopropane-1-carboxamide] | 0.0056 | 0.0095 |
| N#Cc1cc(-c2ccnc(NC(=O)[C@@H]3C[C@@H]3F)c2)ccc1O[C@H]1CCN(C(=O)CO)C[C@H]1F [Example 61, (1S,2S)—N-(4-(3-cyano-4-(((3R,4S)-3-fluoro-1-(2-hydroxyacetyl)piperidin-4-yl)oxy)phenyl)pyridin-2-yl)-2-fluorocyclopropanecarboxamide] | 0.0164 | 0.0322 |
| N#Cc1cc(-c2ccnc(NC(=O)C3C4CC3C4C(N)=O)c2)ccc1OC1CCOCC1 (stereo not shown) [Example 56, N-(4-(3-cyano-4-((tetrahydro-2H-pyran-4-yl)oxy)phenyl)pyridin-2-yl)bicyclo[1.1.1]pentane-2,4-dicarboxamide] | > 1 | 0.444 |
| N#Cc1cc(-c2cc(NC(=O)C3CC3)ncn2)ccc1O[C@H]1CCN(C(=O)c2cnco2)C[C@H]1F [Example 33, N-(6-(3-cyano-4-(((3R,4S)-3-fluoro-1-(oxazole-5-carbonyl)piperidin-4-yl)oxy)phenyl)pyrimidin-4-yl)cyclopropanecarboxamide] | 0.0476 | 0.167 |
| N#Cc1cc(-c2ccnc(NC(=O)[C@@H]3C[C@H]3c3ccco3)c2)ccc1OC1CCOCC1 (relative stereo) [Example 150, Trans-N-(4-(3-cyano-4-((tetrahydro-2H-pyran-4-yl)oxy)phenyl)pyridin-2-yl)-2-(furan-2-yl)cyclopropane-1-carboxamide] | 0.0705 | 0.636 |
| N#Cc1cc(-c2ccnc(NC(=O)C3CC34CCOC4)c2)ccc1OC1CCOCC1 (stereo not shown) [Example 117, N-(4-(3-Cyano-4-((tetrahydro-2H-pyran-4-yl)oxy)phenyl)pyridin-2-yl)-5-oxaspiro[2.4]heptane-1-carboxamide] | 0.851 | > 1 |
| N#Cc1cc(-c2ccnc(NC(=O)C3(C#N)CC3)c2)ccc1O[C@H]1CCN(C(=O)CO)C[C@H]1F [Example 63, 1-Cyano-N-(4-(3-cyano-4-(((3R,4S)-3-fluoro-1-(2-hydroxyacetyl)piperidin-4-yl)oxy)phenyl)pyridin-2-yl)cyclopropane-1-carboxamide] | > 1 | > 1 |
| N#Cc1cc(-c2ccnc(NC(=O)C3CC3)c2)ccc1O[C@H]1CCN(C(=O)[C@@H](O)CO)CC1(F)F [Example 157, N-(4-(3-cyano-4-(((S)-1-((S)-2,3-dihydroxypropanoyl)-3,3-difluoropiperidin-4-yl)oxy)phenyl)pyridin-2-yl)cyclopropanecarboxamide] | 0.0044 | 0.0047 |
| N#Cc1cc(-c2ccnc(NC(=O)[C@H]3C[C@@H]3C3CC3)c2)ccc1OC1CCOCC1 (relative stereo) [Example 88, (1,2-trans)-N-(4-(3-cyano-4-((tetrahydro-2H-pyran-4-yl)oxy)phenyl)pyridin-2-yl)-[1,1′-bi(cyclopropane)]-2-carboxamide] | 0.0588 | 0.314 |
